Converted amounts (≈) assume the structure as drawn. Read-outs that look alike come from different tables or passages of the source. Blank lines part the entries; values can stand above or below the compound they belong to.
Assays:
[1] = In vitro metabolic stability, mouse liver microsomes; type: in vitro ADME; parameters: dose or concentration left out as unconfirmed
Method: In vitro metabolic stability. Microsomes stability experiments. In vitro incubation with mouse microsomes (NADPH and UDPG system). […] At time zero, cofactors were added. […] The mixture was kept at 37° C. under shaking. Aliquots (50 mL) were taken at various time points and crashed with 0.15 mL of CH3CN spiked with 500 nM warfarin (internal standard). Reference incubation, with microsomes but without cofactors, was kept at 37° C. and sampled at the end of the time course. After vortexing and centrifugation, 3 mL of supernatant were analyzed by LCMS/MS and detected by multiple reaction monitoring (MRM).

Plasma stability = type: in vitro ADME; parameters: dose or concentration left out as unconfirmed; conditions: mouse plasma
[2] = Aqueous kinetic solubility in PBS pH 7.4; type: physicochemical; conditions: pH 7.4, aqueous buffer, kinetic from dmso stock; for solubility at 24 h: PBS
[3] = Pharmacokinetics study in mice; type: in vivo, mouse; conditions: for Kp: brain and plasma
Method: Compounds were administered orally or intravenously to C57B6/J mice at 3 mg/kg and 3 mg/kg dose, respectively. Vehicle was PEG400/Tween80/saline solution at 15/15/70% in volume, respectively. Three animals per dose were used. […] Control animals treated with vehicle were also included in the study. Animals were sacrificed at time-points and blood and brain samples were collected. […] Brain samples were homogenized in RIPA buffer (150 mM NaCl, 1.0% Triton X-100, 0.5% sodium deoxycholate, 0.1% sodium dodecyl sulfate, 50 mM Tris, pH 8.0) and were then split in two aliquots kept at −80° C. until analysis. An aliquot was used for compound brain level evaluations, following the same procedure described below for plasma samples. The second aliquot was kept for protein content evaluation by bicinchoninic acid (BCA) assay. Samples (plasma and brain homogenate) were thawed in an ice bath, then centrifuged for 20 min and an aliquot of each (50 μL) was transferred into a 96-deepwell plate and added with 150 μl of the extraction solution, consisting of cold acetonitrile spiked with 200 nM of a structural analog of the analyte (14), closely eluting with the analyte itself, as internal standard. After agitation (3 min) the plate was centrifuged at 3000×g for 20 min at 4° C. 80 μl of supernatant was then transferred in a 96-well plate and added with 80 μL of H2O. Standard compound was spiked in net solvent (PBS pH 7.4 added with 20% CH3CN) to prepare a calibration curve over the 1 nM-10 μM range. 3 quality controls samples were also prepared spiking the compound in blank mouse plasma to final 20, 200 and 2000 nM concentrations. Calibrators and QCs were crashed with the same extraction solution used for the plasma samples. Dosing solutions, previously diluted 100000 fold in the net solvent, were also included in the samples and tested. […] Column and UPLC-MS system were purchased from Waters Inc. Milford, USA. Flow rate was set 0.5 mL/min. Eluents were A=H2O and B═CH3CN, both added with 0.1% formic acid. […] The time/concentration profiles measured with the above mentioned system were then analyzed using PK Solutions Excel application (Summit Research Service, USA) to derive the pharmacokinetic data (Maximum observed concentration (Cmax); maximum time (Tmax); cumulative area under curve (AUC) for experimental time points; distribution volume (Vd); systemic clearance (Cl)).

h-AC [4] = test system: h-AC
h-AC [5] = biological target: h-AC (Homo sapiens (Human), UniProt Q13510); assay: biochemical; conditions: read-out: h-AC inh (%) 30 μM
[6] = pH 7.4, read-out: m-LM stab. t1/2
[7] = phosphate-buffered saline (PBS), 25 °C, Table 9, read-out: Aq. Skin
[8] = 3 mg/kg, CD1 mouse, iv 3 mpk, brain
[9] = 3 mg/kg, CD1 mouse, iv 3 mpk, plasma
[10] = C57B6/J, 10 mg/kg, C57 mouse, po 10 mpk, brain
[11] = C57B6/J, 10 mg/kg, C57 mouse, po 10 mpk, plasma
[12] = C57B6/J, 30 mg/kg, C57 mouse, po 30 mpk, brain
[13] = C57B6/J, 30 mg/kg, C57 mouse, po 30 mpk, plasma
[14] = phosphate-buffered saline (PBS), 25 °C, Table 11, read-out: Aq. Kinetic Solubility
[15] = phosphate-buffered saline (PBS) pH 7.4, 25 °C, Table 9, read-out: Aq. Skin
[16] = phosphate-buffered saline (PBS), 25 °C, Table 10, read-out: Aq. Kinetic Solubility
[17] = phosphate-buffered saline (PBS), 25 °C, Table 7
[18] = 25 °C, Table 10, read-out: Aq. Kinetic Solubility

Compound: CCS(=O)(=O)c1ccccc1C(=O)N1CCN(c2nc3ccc(F)cc3s2)CC1 [Cmpd 1]
half-life [1, 6]: > 1 h | half-life (Plasma stability; read-out: m-plasma stab. t1/2): > 2 h

Compound: CCS(=O)(=O)c1ccccc1C(=O)N1CCN(c2nc3ccc(F)cc3s2)C[C@@H]1C [Compound 8, (2-ethylsulfonylphenyl)-[(2S)-4-(6-fluoro-1,3-benzothiazol-2-yl)-2-methyl-piperazin-1-yl]methanone]
Cmax [3, 8]: 1610 ng/mL | Tmax [3, 8]: 0.0833 h | half-life [3, 8]: 0.725 h | AUC ([3]; 3 mg/kg, CD1 mouse, iv 3 mpk, brain, read-out: AUC): 867 ng·h/mL | Cmax [3, 9]: 1810 ng/mL | Tmax [3, 9]: 0.0833 h | clearance [3, 9]: 31 mL/min/kg | half-life [3, 9]: 0.893 h | AUC ([3]; 3 mg/kg, CD1 mouse, iv 3 mpk, plasma, read-out: AUC): 1550 ng·h/mL | Vd ([3]; 3 mg/kg, CD1 mouse, iv 3 mpk, plasma, read-out: Vss): 2.4 L/kg | Cmax [3, 10]: 392 ng/mL | Tmax [3, 10]: 0.5 h | half-life [3, 10]: 1.22 h | AUC ([3]; C57B6/J, 10 mg/kg, C57 mouse, po 10 mpk, brain, read-out: AUC): 1340 ng·h/mL | Cmax [3, 11]: 1470 ng/mL | Tmax [3, 11]: 0.5 h | half-life [3, 11]: 1.34 h | AUC ([3]; C57B6/J, 10 mg/kg, C57 mouse, po 10 mpk, plasma, read-out: AUC): 5340 ng·h/mL | Cmax [3, 12]: 2240 ng/mL | Tmax [3, 12]: 0.25 h | half-life [3, 12]: 3.14 h | AUC ([3]; C57B6/J, 30 mg/kg, C57 mouse, po 30 mpk, brain, read-out: AUC): 3230 ng·h/mL | Cmax [3, 13]: 5170 ng/mL | Tmax [3, 13]: 0.25 h | half-life [3, 13]: 1.41 h | AUC ([3]; C57B6/J, 30 mg/kg, C57 mouse, po 30 mpk, plasma, read-out: AUC): 46200 ng·h/mL | Kp ([3]; C57B6/J, 10 mg/kg, C57 mouse, po 10 mpk, read-out: AUCbrain/AUCplasma): 0.251 | Kp ([3]; C57B6/J, 30 mg/kg, C57 mouse, po 30 mpk, read-out: AUCbrain/AUCplasma): 0.07 | Total AUC (AUCplasma + AUCbrain) ([3]; C57 mouse, po 10 mpk): 6683 | % distribution (AUC organ/(AUCplasma + AUCbrain)) ([3]; C57 mouse, po 10 mpk, brain): 20% | % distribution (AUC organ/(AUCplasma + AUCbrain)) ([3]; C57 mouse, po 10 mpk, plasma): 80% | Cl ([3]; C57 mouse, po 10 mpk, plasma): 30.429 mL/min/kg | Vss ([3]; C57 mouse, po 10 mpk, plasma): 3.53 L/kg | Total AUC ([3]; C57 mouse, po 30 mpk): 49447.7 | % distribution ([3]; C57 mouse, po 30 mpk, brain): 7% | % distribution ([3]; C57 mouse, po 30 mpk, plasma): 93% | Cl ([3]; C57 mouse, po 30 mpk, plasma): 10.817 mL/min/kg | Vss ([3]; C57 mouse, po 30 mpk, plasma): 1.32 L/kg | Total AUC ([3]; CD1 mouse, iv 3 mpk): 2421.5 | % distribution ([3]; CD1 mouse, iv 3 mpk, brain): 36% | % distribution ([3]; CD1 mouse, iv 3 mpk, plasma): 64% | Kp ([3]; 3 mg/kg, CD1 mouse, iv 3 mpk, read-out: AUCbrain/AUCplasma): 0.557

Compound: CCS(=O)(=O)c1ccccc1C(=O)N1CCN(c2nc3c(F)cc(F)cc3s2)CC1 [Cmpd 34]
h-AC inh (%) 30 μM (h-AC [4]): 17% | inhibition at 30 µM (h-AC [5]): 4%

Compound: CCS(=O)(=O)c1ccccc1C(=O)N1CCN(c2nc3ccc(C)cc3s2)CC1 [CH3]
solubility kinetic at 24 h [2, 14]: 181 µM (≈ 77.8 µg/mL)

Compound: CCS(=O)(=O)c1ccccc1C(=O)N1CCN(c2nc3ccc(F)cc3s2)C(C)C1 (stereo not shown) [Compound 16]
inhibition at 30 µM (h-AC [5]): 25%

Compound: CCS(=O)(=O)c1ccccc1C(=O)N1CCN(c2nc3ccc(F)cc3s2)[C@H](C)C1 [Compound 24]
inhibition at 30 µM (h-AC [5]): 1%

Compound: O=C(c1ccccc1S(=O)(=O)C1COC1)N1CCN(c2nc3ccc(F)cc3s2)CC1 [Compound 13]
half-life [1, 6]: > 1 h | half-life (Plasma stability; read-out: m-plasma stab. t1/2): > 2 h

Compound: O=C(c1ccccc1S(=O)(=O)CCCO)N1CCN(c2nc3ccc(F)cc3s2)CC1 [CH2CH2CH2OH]
solubility kinetic [2, 18]: 49 µM (≈ 22.7 µg/mL)

Compound: CCCS(=O)(=O)c1ccccc1C(=O)N1CCN(c2nc3ccc(F)cc3s2)CC1 [CH2CH2CH3]
solubility kinetic [2, 18]: < 1 µM

Compound: CCS(=O)(=O)c1ccccc1C(=O)N1CCN(c2nc3ccccc3o2)CC1 [Cmpd 6]
half-life [1, 6]: 0.45 h | solubility kinetic at 24 h [2, 15]: > 250 µM | h-AC inh (%) 30 μM (h-AC [4]): 64% | inhibition at 30 µM (h-AC [5]): 0% | half-life (Plasma stability; read-out: m-plasma stab. t1/2): > 2 h

Compound: CCCCS(=O)(=O)c1ccccc1C(=O)N1CCN(c2nc3ccc(F)cc3s2)CC1 [CH2CH2CH2CH3]
solubility kinetic [2, 18]: < 1 µM

Compound: CCCS(=O)(=O)c1ccccc1C(=O)N1CCN(c2nc3ccc(F)cc3s2)CC1 [Compound 11]
half-life [1, 6]: > 1 h | inhibition at 30 µM (h-AC [5]): 2% | half-life (Plasma stability; read-out: m-plasma stab. t1/2): > 2 h

Compound: O=C(c1ccccc1S(=O)(=O)C1CC1)N1CCN(c2nc3ccc(F)cc3s2)CC1 [Compound 22]
half-life [1, 6]: > 1 h | inhibition at 30 µM (h-AC [5]): -1% | half-life (Plasma stability; read-out: m-plasma stab. t1/2): > 2 h

Compound: CCS(=O)(=O)c1ccccc1C(=O)N1CCN(c2nc3ccc(F)cc3s2)C[C@@H]1C [Compound 8]
half-life ([1]; pH 7.4, NADPH, read-out: MLM (NADPH) t1/2): > 1 h | solubility at 24 h ([2]; phosphate-buffered saline (PBS), 25 °C, Table 5): 165 µM (≈ 73.8 µg/mL) | solubility at 24 h [2, 17]: 139 ± 1 µM (≈ 62.2 µg/mL) | half-life (Plasma stability; Table 5, read-out: Plasma t1/2): > 2 h | Kp ([3]; C57B6/J, mouse, 3 mg/kg, mice, oral administration, read-out: brain-to-plasma ratio): 0.25 | Tmax ([3]; C57B6/J, mouse, plasma, oral 3 mg/kg, mice): 0.5 h | AUC ([3]; C57B6/J, mouse, plasma, oral 3 mg/kg, mice, read-out: AUCplasma): 988 ng·h/mL | Cmax ([3]; C57B6/J, mouse, oral 3 mg/kg, mice, plasma): 613 ng/mL

Compound: CCS(=O)(=O)c1ccccc1C(=O)N1CCN(c2nc3c(F)cccc3s2)CC1 [Compound 8]
half-life [1, 6]: 0.267 h | half-life (Plasma stability; read-out: m-plasma stab. t1/2): > 2 h

Compound: CCS(=O)(=O)c1ccccc1C(=O)N1CCN(c2nc3ccc(F)c(F)c3s2)CC1 [Cmpd 35]
half-life [1, 6]: > 1 h | solubility kinetic at 24 h [2, 15]: 7 µM (≈ 3.16 µg/mL) | h-AC inh (%) 30 μM (h-AC [4]): 12% | inhibition at 30 µM (h-AC [5]): 0% | half-life (Plasma stability; read-out: m-plasma stab. t1/2): > 2 h

Compound: CCS(=O)(=O)c1ccccc1C(=O)N1CCN(c2nc3cccc(F)c3s2)CC1 [Compound 9]
half-life [1, 6]: 0.267 h | inhibition at 30 µM (h-AC [5]): -3% | half-life (Plasma stability; read-out: m-plasma stab. t1/2): > 2 h

Compound: CCS(=O)(=O)c1ccccc1C(=O)N1CCN(c2nc3ccc(Cl)cc3s2)CC1 [Cl]
solubility kinetic at 24 h [2, 14]: 2 µM (≈ 0.9 µg/mL)

Compound: O=C(c1ccccc1S(=O)(=O)C1CCC1)N1CCN(c2nc3ccc(F)cc3s2)CC1 [Compound 12]
half-life [1, 6]: > 1 h | inhibition at 30 µM (h-AC [5]): -3% | half-life (Plasma stability; read-out: m-plasma stab. t1/2): > 2 h

Results, then the compound that gave them:

solubility kinetic at 24 h [2, 7]: 14 µM (≈ 6.69 µg/mL) | half-life (Plasma stability; read-out: m-plasma stab. t1/2): > 2 h
Compound: C[C@H]1CN(c2nc3ccc(F)c(F)c3s2)CCN1C(=O)c1ccccc1S(=O)(=O)C1CC1 [Compound 38]

half-life [1, 6]: > 1 h | solubility kinetic at 24 h [2, 15]: 6 µM (≈ 2.59 µg/mL) | inhibition at 30 µM (h-AC [5]): -12% | half-life (Plasma stability; read-out: m-plasma stab. t1/2): > 2 h
Compound: CCS(=O)(=O)c1ccccc1C(=O)N1CCN(c2nc3ccc(F)cc3o2)C[C@@H]1C [Compound 26]

solubility kinetic at 24 h [2, 14]: 196 µM (≈ 81.4 µg/mL)
Compound: CCS(=O)(=O)c1ccccc1C(=O)N1CCN(c2nc3ccccc3s2)CC1 [H]

solubility kinetic at 24 h [2, 16]: < 1 µM
Compound: CC(C)S(=O)(=O)c1ccccc1C(=O)N1CCN(c2nc3ccc(F)cc3s2)CC1 [i-Pr]

solubility at 24 h [2, 17]: 76 ± 1 µM (≈ 35.1 µg/mL)
Compound: CCCS(=O)(=O)c1ccccc1C(=O)N1CCN(c2nc3ccc(F)cc3s2)C[C@@H]1C [Compound 41, [(2S)-4-(6-fluoro-1,3-benzothiazol-2-yl)-2-methyl-piperazin-1-yl]-(2-propylsulfonylphenyl)methanone]

solubility kinetic [2, 18]: < 1 µM
Compound: O=C(c1ccccc1S(=O)(=O)C1CCCC1)N1CCN(c2nc3ccc(F)cc3s2)CC1 [c-pentyl]

half-life [1, 6]: > 1 h | solubility kinetic at 24 h [2, 7]: 8 µM (≈ 3.84 µg/mL) | inhibition at 30 µM (h-AC [5]): 9% | half-life (Plasma stability; read-out: m-plasma stab. t1/2): > 2 h
Compound: CCCS(=O)(=O)c1ccccc1C(=O)N1CCN(c2nc3ccc(F)c(F)c3s2)C[C@@H]1C [Compound 37]

solubility kinetic [2, 18]: 5 µM (≈ 2.3 µg/mL)
Compound: O=C(c1ccccc1S(=O)(=O)C1CCC1)N1CCN(c2nc3ccc(F)cc3s2)CC1 [c-butyl]

solubility kinetic at 24 h [2, 15]: 124 µM (≈ 55 µg/mL) | inhibition at 30 µM (h-AC [5]): -12% | half-life (Plasma stability; read-out: m-plasma stab. t1/2): > 2 h
Compound: C[C@H]1CN(c2nc3ccc(F)cc3o2)CCN1C(=O)c1ccccc1S(=O)(=O)C1CC1 [Compound 27]

solubility kinetic at 24 h [2, 14]: 39 µM (≈ 17.4 µg/mL)
Compound: CCS(=O)(=O)c1ccccc1C(=O)N1CCN(c2nc3ccc(OC)cc3s2)CC1 [OMe]

solubility at 24 h [2, 17]: 115 ± 7 µM (≈ 52.9 µg/mL)
Compound: C[C@H]1CN(c2nc3ccc(F)cc3s2)CCN1C(=O)c1ccccc1S(=O)(=O)C1CC1 [Compound 42, (2-cyclopropylsulfonylphenyl)-[(2S)-4-(6-fluoro-1,3-benzothiazol-2-yl)-2-methyl-piperazin-1-yl]methanone]

half-life [1, 6]: > 1 h | solubility kinetic at 24 h [2, 7]: 1 µM (≈ 0.466 µg/mL) | half-life (Plasma stability; read-out: m-plasma stab. t1/2): > 2 h
Compound: CCS(=O)(=O)c1ccccc1C(=O)N1CCN(c2nc3ccc(F)c(F)c3s2)C[C@@H]1C [Compound 36]

solubility kinetic at 24 h [2, 16]: 22 µM (≈ 10.2 µg/mL)
Compound: O=C(c1ccccc1S(=O)(=O)C1COC1)N1CCN(c2nc3ccc(F)cc3s2)CC1 [oxetan-3-yl]

solubility kinetic [2, 18]: 10 µM (≈ 4.46 µg/mL)
Compound: O=C(c1ccccc1S(=O)(=O)C1CC1)N1CCN(c2nc3ccc(F)cc3s2)CC1 [c-propyl]

solubility kinetic at 24 h [2, 15]: 45 µM (≈ 20 µg/mL) | inhibition at 30 µM (h-AC [5]): -11% | half-life (Plasma stability; read-out: m-plasma stab. t1/2): > 2 h
Compound: CCCS(=O)(=O)c1ccccc1C(=O)N1CCN(c2nc3ccc(F)cc3o2)C[C@@H]1C [Compound 28]

From patent US10556892B2, “Piperazinyl methanone NAAA inhibitors” (priority 2016, dated 2020)
